Measured values reported in paper PMC10569044, “Methylation and Demethylation of Emerging Contaminants Changed Bioaccumulation and Acute Toxicity in Daphnia magna” (Environmental Science & Technology, 2023).
Values after ≈ are worked out from the molar mass of the structure shown. Read-outs that look alike come from different tables or passages of the source.

Experiments:
[1] = system: H. azteca and G. pulex; settings: cited from earlier work
[2] = Procedure: The pH of the test medium in this study was measured to be 8.50 ± 0.10. The neutral fraction (fn) of the target compounds, their pH-adjusted octanol–water coefficients (log Dow), and their pH-adjusted lipid–water coefficients (log Dlipw) were calculated for this pH condition (Table 1). The calculation and related details are given in the Supporting Information (SI) in Text S1. […]
Text 1. Calculation of physicochemical property parameters
The pH of the artificial freshwater environment for D. magna was measured as […]. The fraction of neutral species (f n) for the test compounds was calculated as the following equation:1–3 […]
where i is 1 for acids and -1 for bases. The pH-adjusted octanol-water coefficient log

[3] = system: D. magna; settings: for BCF in vivo (dynamic BCF): ku/kd; for ku (uptake rate constant): 24 h uptake phase; for BCF in vivo ratio / half-life in vivo ratio: methylated derivative over demethylated counterpart
[4] = system: D. magna; assay: Interconversion (methylation/demethylation) in D. magna
[5] = in vivo; settings: Daphnia magna
Procedure: Preliminary tests were conducted for each target compound at widely spaced concentrations to identify the concentration range for deriving an accurate dose–response curve. The stock solutions of individual test compounds were prepared in methanol and diluted with 10 mL of aerated AFW to different concentrations in 20 mL glass vials. The methanol volume was set to 100 μL in each vial as the solvent carrier, and a control group containing 100 μL of methanol without the target compound was used as the carrier solvent control. Each test included at least five concentration levels, and the concentrations of test compounds in the medium were experimentally measured (SI, Table S1). Each treatment included four replicates. […] The obtained dose–response data were fitted to the Boltzmann equation:[24] [drawing 1] 1 where C is the measured concentration of the test compound.

[6] = system: D. magna; settings: in vivo
[7] = in vivo; settings: whole D. magna (wet weight), 1 mg L^–1, pH 8.5
[8] = cited from earlier work; for pKa: measured value, ref CompTox Chemicals Dashboard; for logKow: measured values, ref PubChem
[9] = pH 8.50, calculated, crosschecked with ChemAxon
[10] = end of uptake phase, 24 h, 1 mg L^–1 nominal
[11] = after 2 h of exposure, 1 mg L^–1 nominal

COC(=O)Cc1ccccc1Nc1c(Cl)cccc1Cl [methylated diclofenac]
bioaccumulation relative to diclofenac [1]: 25–110 fold

O=C1CN=C(c2ccccc2)c2cc(Cl)ccc2N1 [DM-diazepam, reference compound]
fn (neutral fraction) ([2]; pH 8.50, calculated): 1 | BCF in vivo (dynamic BCF) ([3]; D. magna, 1 mg L^–1 nominal): 9.8 ± 0.3 L kg^–1, w.w. | ku (uptake rate constant) ([3]; D. magna): 20 ± 1.7 mL/min/kg | molar equivalent of demethylated TP in D. magna ([4]; at the end of depuration): 33.5%

COC(=O)c1ccc(O)cc1 [methylparaben]
fn (neutral fraction) ([2]; pH 8.50, calculated): 0.41 | logDlipw ([2]; pH 8.50, calculated): 1.93 | logDow [2, 9]: 1.57 | LC50 at 48 h [5]: 34.4 ± 4.3 µg/mL (≈ 226 µM) | BCF in vivo (dynamic BCF) ([3]; D. magna, 1 mg L^–1 nominal): 2.8 ± 0.2 L kg^–1, w.w. | ku (uptake rate constant) ([3]; D. magna): 12 ± 1.7 mL/min/kg | concentration in D. magna [3, 10]: 2216.3 ± 85.7 ng g^–1 (w.w.) | demethylation in D. magna (demethylated product in exposed D. magna) [6]: evident | half-life [7]: 2.7 h

COc1ccc2cc([C@H](C)C(=O)O)ccc2c1 [naproxen, reference compound]
BCF in vivo (dynamic BCF) ([3]; D. magna, 1 mg L^–1 nominal): 1.5 ± 0.6 L kg^–1, w.w. | demethylation in D. magna (demethylated product in exposed D. magna) [6]: evident

CC(=O)Nc1ccc(O)cc1 [acetaminophen, reference compound]
logDlipw ([2]; pH 8.5): 0.89 | logDow ([2]; pH 8.5): 0.41 | fn (neutral fraction) ([2]; pH 8.50, calculated): 0.9 | LC50 at 48 h ([5]; other: waterborne exposure in the test medium): 21.2 ± 2.4 µg/mL (≈ 140 µM) | BCF in vivo (dynamic BCF) ([3]; D. magna, 1 mg L^–1 nominal): 0.3 ± 0.0 L kg^–1, w.w. | ku (uptake rate constant) ([3]; D. magna): 3.3 ± 0 mL/min/kg | rise of BCF after methylation ([3]; D. magna, in vivo): approximately 33 fold | concentration in D. magna [3, 11]: 308.7 ± 42.6 ng g^–1 (w.w.) | BCF in vivo ratio [3]: 1.0 | half-life in vivo ratio [3]: 1.0 | pKa [8]: 9.38 | logKow [8]: 0.46 | half-life [7]: 1 h

CN1C(=O)CN=C(c2ccccc2)c2cc(Cl)ccc21 [diazepam, reference compound]
fn (neutral fraction) ([2]; pH 8.50, calculated): 1 | BCF in vivo (dynamic BCF) ([3]; D. magna, 1 mg L^–1 nominal): 9.0 ± 0.4 L kg^–1, w.w. | logKow [8]: 2.82 | demethylation in D. magna (demethylated product in exposed D. magna) ([4]; exposure to individual methylated compound): evident

C[C@H](C(=O)O)c1ccc2cc(O)ccc2c1 [DM-naproxen]
fn (neutral fraction) ([2]; pH 8.50, calculated): 0 | logDlipw ([2]; pH 8.50, calculated): −0.67 | logDow [2, 9]: -1.32 | logDlipw ([2]; pH 8.50, calculated, listed as DM-Naproxen): -0.67 | LC50 at 48 h [5]: 67.9 ± 6 µg/mL (≈ 314 µM) | BCF in vivo (dynamic BCF) ([3]; D. magna, 1 mg L^–1 nominal): 0 L kg^–1, w.w. | level in D. magna ([3]; bioaccumulation experiment, 1 mg L^–1 nominal): below the LOD | formation rate of demethylated TP ([6]; Daphnia magna, pH 8.5): 1.5 ± 0.3 nmol g^–1 h^–1

COc1ccc(NC(C)=O)cc1 [M-acetaminophen]
fn (neutral fraction) ([2]; pH 8.50, calculated): 1 | logDlipw ([2]; pH 8.50, calculated): 1.45 | logDow [2, 9]: 1.03 | LC50 at 48 h [5]: 32.1 ± 5.7 µg/mL (≈ 194 µM) | BCF in vivo (dynamic BCF) ([3]; D. magna, 1 mg L^–1 nominal): 10.0 ± 0.0 L kg^–1, w.w. | ku (uptake rate constant) ([3]; D. magna): 288 ± 6.7 mL/min/kg | fold difference of concentration in D. magna vs acetaminophen ([3]; after 2 h of exposure): 28 fold | concentration in D. magna [3, 11]: 8730.7 ± 2900.9 ng g^–1 (w.w.) | BCF in vivo ratio [3]: 33.3 | half-life in vivo ratio [3]: 0.4 | BCF in vivo ratio ([3]; listed as methylated acetaminophen): about 33 | demethylation in D. magna (demethylated product in exposed D. magna) [6]: not detected | logKow [8]: 1.03 | half-life [7]: 0.4 h

O=C(O)c1ccc(O)cc1 [DM-methylparaben]
logDow ([2]; pH 8.5): -2.38 | fn (neutral fraction) ([2]; pH 8.50, calculated): 0 | LC50 at 48 h [5]: 226 ± 17.3 µg/mL (≈ 1630 µM) | BCF in vivo (dynamic BCF) ([3]; D. magna, 1 mg L^–1 nominal): 0.9 ± 0.5 L kg^–1, w.w. | ku (uptake rate constant) ([3]; D. magna): 5 ± 0 mL/min/kg | concentration in D. magna [3, 10]: 682.7 ± 91.5 ng g^–1 (w.w.) | BCF in vivo ratio [3]: 1.0 | half-life in vivo ratio [3]: 1.0 | molar equivalent of demethylated TP relative to methylated parent in D. magna ([6]; Daphnia magna, 12 h, pH 8.5): about 2.0% | molar equivalent of demethylated TP in D. magna ([6]; Daphnia magna, 24 h, pH 8.5): 54.8% | pKa [8]: 4.54 | logKow [8]: 1.58 | half-life [7]: 2.2 h
